Data set [1] deals with methamphetamine-induced rearing activity. In words: Methamphetamine-induced stereotypic rearing activity (photobeam system). Particulars: for total cumulative rearing activity during the 90 minute period after drug administration: FIG. 2, METH 2 mg/kg in all, combination p<0.0005 vs METH+clozapine, saline 56±9; for total cumulative rearing activity during the 90 minute period after drug administration / total rearing activity during the 90 minute test period: i.p., mean±standard error; for reduction of methamphetamine-induced rearing activity: FIG. 3 legend; for total rearing activity during the 90 minute test period: FIG. 4, METH in all, combination p<0.0005 vs METH+HAL, saline 53±11; for Percent Reduction in Methamphetamine Induced Activity: Rearing: Table 1; for reduction of METH-induced rearing: risperidone 0.1 mg/kg, combination p<0.01 vs METH+RISP.
Description: (§4) In the present experiments, male Sprague-Dawley rats (250-300 g; Charles River Laboratories) were given ad libitum food and water and maintained on a 12:12 hr light:dark cycle with lights on at 6:00 AM. […] Locomotor and rearing activities were continuously monitored by computer for all ten test cages. Test cages (with photobeam arrays) were placed in a partially darkened room with room ventilation as background noise. On the test day, naive rats were initially placed in the test cages and baseline behavioral activity in the novel environment was monitored during a 30-minute acclimation period. The rats were then injected (i.p.) with vehicle or drug(s) dissolved in vehicle and immediately returned to the test cage and monitored undisturbed for 90 minutes.
(§5) Behavioral experiments were repeated at least twice for each condition. Photobeam breaks were summed by the computer into ten-minute periods for analysis. Group means and standard errors are reported in the figures; means and standard deviations were used for statistical analysis by unpaired, two-tailed t test assuming unequal variance.

Data set [2] has as its system Muscarinic receptor. The data set is described as follows: Radioligand binding, [^3 H]-QNB. The text has this:
(§1) Table 2 presents the results of radioligand binding studies that show a lack of interaction between Ampakines and dopaminergic or serotonergic receptors.
(§2) Radioligand Binding Analysis of Potential Interactions between
(§3) Select Ampakines and Select Neurotransmitter Receptors

For data set [3], the system named is AMPA-type glutamate receptors. The data set is described as follows: Specificity for AMPA-type glutamate receptors.
Description: as §1

Data set [4] deals with Dopaminergic receptor. The data set is described as follows: Radioligand binding, [^3 H]-Spiperone.
Description: as §1, §2, §3

For data set [5], the system named is Serotoninergic receptor. The data set is described as follows: Radioligand binding, [^3 H]-dLSD.
Description: as §1, §2, §3

The test system of data set [6] is methamphetamine-induced locomotor activity. The data set is described as follows: Methamphetamine-induced locomotor activity / crossing (photobeam system). As to conditions: for Percent Reduction in Methamphetamine Induced Activity: Crossing: Table 1; for reduction of METH LMA: text of Example 3, locomotor activity, haloperidol 0.06 mg/kg, combination p<0.005 vs METH+HAL.
Description: as §4, §5

The test system of data set [7] is Adrenergic receptor. The data set is described as follows: Radioligand binding, [^3 H]-Prazosin.
Description: as §1, §2, §3

Data set [8] concerns AMPA receptors. In words: Field EPSP amplitude in rat hippocampal slices. The data set is classed as cell-based. As to conditions: field CA1, read-out: EC50 values to increase the amplitude of the field EPSP. The protocol:
The physiological effects of Ampakines may be tested in vitro with slices of rat hippocampus according to the following procedure. Excitatory responses (field EPSPs) are measured in hippocampal slices, which are maintained in a recording chamber continuously perfused with artificial cerebrospinal fluid (ACSF). During a 15-30 minute interval, the perfusion medium is switched to one containing various concentrations of the test compounds. Responses collected immediately before and at the end of drug perfusion were superimposed in order to calculate both the percent increase in EPSP amplitude and percent increase in the width of the response at one-half the peak height (half-width). […]
Current pulses (0.1 msec) through the stimulating electrode activate a population of the Schaffer-commissural (SC) fibers which arise from neurons in the field CA3 and terminate in synapses on the dendrites of CA1 neurons. […] This current results in a voltage in the extracellular space (the field excitatory post-synaptic potential or field "EPSP") which is recorded by a high impedance recording electrode positioned in the middle of the stratum radiatum of CA1. […]

Data set [9] has as its system D2 dopamine receptor. As to conditions: typical antipsychotics; cited from earlier work.
For data set [10], the system named is dopamine receptors. As to conditions: atypical antipsychotics; cited from earlier work.
The subject of data set [11] is serotonin receptors. As to conditions: atypical antipsychotics; cited from earlier work.
For data set [12] the following is noted: peripheral administration in humans; Guenzi and Zanetti; cited from earlier work.
Data set [13] concerns psychotic symptoms. As to conditions: cited from earlier work; for effect on symptoms in patients: Lahti et al.; for effect in volunteers: Krystal et al.
Data set [14] relates to behavior in animals. Particulars: Freed et al.; cited from earlier work.
Setting [15] is: clozapine 1.0 mg/kg, CX516 10 mg/kg.
[16] abbreviates: clozapine 1 mg/kg experiment, CX516 10 mg/kg.
Where [17] appears, read: fluphenazine 0.2 mg/kg experiment, CX516 10 mg/kg.
The mark [18] stands for this setting: haloperidol 0.06 mg/kg experiment, CX516 30 mg/kg.
[19] abbreviates: risperidone 0.1 mg/kg experiment, CX516 10 mg/kg.
Setting [20] is: clozapine experiment, METH 2 mg/kg i.p., clozapine 1.0 mg/kg, CX516 10 mg/kg.
[21] abbreviates: haloperidol experiment, HAL 0.06 mg/kg, CX516 30 mg/kg.
Where [22] appears, read: text of Example 2, CX516 10 mg/kg.

pEC50: −log10 of the molar value. “Also recorded” adds a separate entry of the source. Structures can show the parent of a compound that is named as a salt.

For the compound `O=C(c1ccc2nccnc2c1)N1CCCCC1` [CX516, 1-(Quinoxalin-6-ylcarbonyl)piperidine], the “total cumulative rearing activity during the 90 minute period after drug administration” value in [1] (setting [15]) is given as 495±78. The “reduction of methamphetamine-induced rearing activity” value in data set [1] (CX516 30 mg/kg, HAL 0.06 mg/kg) is given as 23%. Also, the “total rearing activity during the 90 minute test period” value in data set [1] (HAL 0.06 mg/kg, CX516 30 mg/kg) worked out at 863±169. The “Percent Reduction in Methamphetamine Induced Activity: Rearing” value (shortened to “Percent Reduction … Rearing”) was determined as 34% in data set [1] (setting [16]), 37% in data set [1] (setting [17]), 23% in [1] (setting [18]) and 28% in data set [1] (setting [19]). The “effect on methamphetamine-induced rearing” value in [1] (setting [20]) is reported as “synergistically enhanced the antagonistic activity of clozapine; also recorded: synergistically enhances clozapine antagonism of methamphetamine-induced rearing activity; also recorded: small, but statistically insignificant antagonism of methamphetamine-induced rearing”; in data set [1] (setting [21]), “modest, non-significant antagonism; also recorded: synergistically enhances haloperidol antagonism of methamphetamine-induced stereotypic rearing activity; also recorded: Neither CX516 (30 mg/kg) nor HAL (0.06 mg/kg) significantly reduced methamphetamine-induced rearing activity”. Moreover, the “reduction of METH-induced rearing” value in data set [1] (setting [22]) is listed as 28%. Besides, the “antagonism of METH-induced rearing activity” value in [1] (text of Example 2, clozapine 1.0 mg/kg alone, CX516 10 mg/kg alone) is given as 34%. Moreover, in data set [1] (text of Example 3, haloperidol 0.06 mg/kg, CX516 30 mg/kg, combination p<0.0005 vs haloperidol alone), the “reduction of METH-induced stereotypic rearing activity” value was found to be 22%. The “% Inhibition of ligand binding” value in data set [2] (1E-5 Molar) is 5.3%; in data set [2] (1E-7 Molar) it was 0.4%; in [2] (1E-9 Molar) it was 5.5%; in data set [4] (1E-5 Molar) it was -2.8%; in data set [4] (1E-7 Molar), 0.6%; in data set [4] (1E-9 Molar), -5.1%. The “% Inhibition of ligand binding” value in [5] (1E-5 Molar) was 9.1%; in [5] (1E-7 Molar) it was 9.9%; in data set [5] (1E-9 Molar) it was 5.5%; in data set [7] (1E-5 Molar), -0.2%; in data set [7] (1E-7 Molar), -3.5%; in data set [7] (1E-9 Molar) it was 0.0%. Moreover, in [3], the “specificity for AMPA-type glutamate receptors” value is “quite specific for AMPA-type glutamate receptors”. Besides, the “Percent Reduction in Methamphetamine Induced Activity: Crossing” value (shortened to “Percent Reduction … Crossing”) in data set [6] (setting [16]) is recorded as -32%; in data set [6] (setting [17]), 47%; in data set [6] (setting [18]), 10%; in [6] (setting [19]), 0%. In [6] (CX516 30 mg/kg), the “reduction of METH LMA” value was found to be 10%. The negative logarithm of the EC50 (pEC50) in [8] is 3.74.

Regarding `O=C(c1ccc2nonc2c1)N1CCCCC1` [CX691], the “% Inhibition of ligand binding” value in data set [2] (1E-4 Molar) is reported as -3.7%; in data set [2] (1E-7 Molar), -8.0%; in data set [4] (1E-4 Molar), 10.7%; in data set [4] (1E-7 Molar), 6.1%; in data set [5] (1E-4 Molar) it was 27.0%; in [5] (1E-7 Molar) it was 1.6%. In addition, the “% Inhibition of ligand binding” value in data set [7] (1E-4 Molar) is reported as 7.0%; in [7] (1E-7 Molar) it was -7.5%. For the same compound, the “specificity for AMPA-type glutamate receptors” value in [3] is on record as “quite specific for AMPA-type glutamate receptors”. The pEC50 in data set [8] is 5.52.

For the compound `OCCN1CCN(CCCN2c3ccccc3Sc3ccc(C(F)(F)F)cc32)CC1` [Fluphenazine, reference compound], the “Percent Reduction … Rearing” value in [1] (setting [17]) was 57%. The “D2 dopamine receptor antagonism” value in data set [9] was “potently antagonize the D2 dopamine receptor”. Moreover, in data set [6] (setting [17]), the “Percent Reduction … Crossing” value was 54%.

For `O=C(CCCN1CCC(O)(c2ccc(Cl)cc2)CC1)c1ccc(F)cc1` [Haloperidol, reference compound], the “reduction of methamphetamine-induced rearing activity” value in data set [1] (CX516 30 mg/kg, HAL 0.06 mg/kg) was 16%. Also, the “total rearing activity during the 90 minute test period” value in data set [1] (HAL 0.06 mg/kg, CX516 30 mg/kg) is given as 934±119. The “Percent Reduction … Rearing” value in [1] (setting [18]) worked out at 16%. For the same compound, the “effect on methamphetamine-induced rearing” value is recorded as “modest, non-significant antagonism” in data set [1] (setting [21]) and “Neither CX516 (30 mg/kg) nor HAL (0.06 mg/kg) significantly reduced methamphetamine-induced rearing activity” in data set [1] (haloperidol experiment, HAL 0.06 mg/kg, CX516 30 mg/kg, listed as HAL). Also, the “D2 dopamine receptor antagonism” value in data set [9] is reported as “potently antagonize the D2 dopamine receptor”. Besides, the “Percent Reduction … Crossing” value in data set [6] (setting [18]) is 9%. Further, in [6] (CX516 30 mg/kg), the “reduction of METH LMA” value is on record as 9%.

For the compound `CN[C@@H](C)Cc1ccccc1` [METH, S-(+)-methamphetamine HCl, reference compound], the “total cumulative rearing activity during the 90 minute period after drug administration” value in [1] (setting [15]) turned out to be 724±136. The “total rearing activity during the 90 minute test period” value in data set [1] (HAL 0.06 mg/kg, CX516 30 mg/kg) came out at 1105±161. Further, the “effect on methamphetamine-induced rearing” value in data set [1] (setting [20]) was “large induction of rearing activity”.

Take `Cc1nc2n(c(=O)c1CCN1CCC(c3noc4cc(F)ccc34)CC1)CCCC2` [Risperidone, reference compound]: the “Percent Reduction … Rearing” value in [1] (setting [19]) came to 51%. In [1] (setting [22]), the “reduction of METH-induced rearing” value is on record as 51%. For the same compound, in data set [10], the dopamine receptor antagonism result was “relatively potent antagonists at dopamine receptors”. The serotonin receptor antagonism result in [11] was “potent antagonists at serotonin receptors”. Also, the “Percent Reduction … Crossing” value in data set [6] (setting [19]) worked out at 43%.

For the compound `COc1ccc(C(=O)N2CCCC2=O)cc1` [aniracetam, N-anisoyl-2-pyrrolidinone], the “fraction of drug converted to anisoyl-GABA” value in data set [12] was “about 80%”.

For the compound `CN(C)CCCN1c2ccccc2Sc2ccc(Cl)cc21` [chlorpromazine], the “D2 dopamine receptor antagonism” value in [9] is “potently antagonize the D2 dopamine receptor”.

As for `CNC1(c2ccccc2Cl)CCCCC1=O` (stereo not shown) [ketamine], in data set [13], the “effect on symptoms in patients” value is “exacerbate symptoms in patients” and the effect in volunteers entry is given as “produce a range of psychotic symptoms in volunteers”. Besides, the “effect on behavior in animals” value in data set [14] is listed as “produce aberrant behavior in animals”.

In the case of `Cc1cc2c(s1)Nc1ccccc1N=C2N1CCN(C)CC1` [olanzapine], in data set [10], the dopamine receptor antagonism result is recorded as “relatively potent antagonists at dopamine receptors”. In addition, the serotonin receptor antagonism result in data set [11] was “potent antagonists at serotonin receptors”.

`c1ccc(C2(N3CCCCC3)CCCCC2)cc1` [phencyclidine]: in data set [13], the “effect on symptoms in patients” value was “exacerbate symptoms in patients” and the effect in volunteers result is given as “produce a range of psychotic symptoms in volunteers”. Besides, in data set [14], the “effect on behavior in animals” value is reported as “produce aberrant behavior in animals”.

(Values after patent publication US6166008A, “Treatment of schizophrenia with ampakines and neuroleptics” (Cortex Pharmaceuticals, Inc., priority 1998, dated 2000).)
